Key:
[1] = biological target: T1, NS3 protease domain (Hepatitis C virus genotype 1b, UniProt Q9WMX2); test: Fluorescence enzymatic assay with NS3 protease domain alone; assay type: biochemical; settings: NS3/4A protease domain only; read-out: IC50 NS3 protease domain
T1 construct: the full-length NS3/4A and the NS3/4A protease domain alone
Experimental: A series of compound concentrations (0 to 200 µM final concentration at 2-fold serial dilution) in 100% DMSO were prepared in a 384-well plate. 20 µL of enzyme solution was distributed to wells, and 0.5 µL of varying concentration of compounds were added and incubated for 5 minutes. The enzyme reaction was initiated by adding 5 µL of the substrate, and its activity was continuously monitored for 6 minutes. The IC50 values were calculated by fitting with the Hill equation (1), with OriginPro 8.5 (OriginLab, Inc.) where y is percent inhibition, x is inhibitor concentration, n is the slope of the concentration–response curve (Hill slope), and Vmax is maximal inhibition from two to four independent assays. [drawing 1] (1)

[2] = biological target: NS3/4A protease genotype 4d (Hepatitis C virus subtype 4d, UniProt Q1ZZ56); test: Inhibition assay with NS3/4A from genotype 4d; assay type: biochemical
Experimental: (§1) The inhibitory activity of the final hit compounds from HTS were tested against three other HCV genotypes (1a, 2a, and 4d), along with a control (genotype 1b) and five NS3 drug-resistant mutants. Eight full-length NS3 mutants (V36M, R155K, A156T, A156S, 156V, V36A, T54A, and R155T) were generated by mutagenesis and purified, and the three HCV NS3/4A protease genotypes were purchased from Anaspec. Unfortunately the enzyme activities of the three mutants V36A, T54A, and R155T were much less than that of the rest of the mutants and were insufficient for testing, therefore mutant studies were done with the five active mutants. Continuous kinetic assays were performed against all hit compounds in the same way as the wild-type NS3/4A. As a control, full-length NS3/4A (genotype 1b) was tested under the same conditions for direct comparison for each plate.

[3] = biological target: T2, full-length NS3/4A genotype 1b mutant R155K (Hepatitis C virus genotype 1b, UniProt Q9WMX2, R1181K); test: Inhibition assay with drug-resistant mutant R155K; assay type: biochemical
T2 construct: wild-type HCV NS3 (HCV polyprotein residues 1027–1657); His-tag (N); made in house
Experimental: (§2) The full-length genes of wild-type HCV NS3 (HCV polyprotein residues 1027–1657) with a his-tag at the N-terminus and NS4A (residues 1658–1711) with no tag were cloned, co-expressed, and purified as described. Eight NS3 drug resistant mutants (V36M, V36A, T54A, R155K, R155T, A156T, A156S, and 156V) were generated by mutagenesis using full-length, wild-type NS3-containing recombinant plasmid (pETDuet-1/FL NS3/4A) as a template. The over-expression and purification of all mutants were performed by the same method as the wild-type with minor modifications.
as §1, with “As a control, full-length NS3/4A (genotype 1b) was tested under the same conditions for direct comparison for each plate.” left out

[4] = biological target: T3, full-length NS3/4A genotype 1b mutant V36M (Hepatitis C virus genotype 1b, UniProt Q9WMX2, V1062M); test: Inhibition assay with drug-resistant mutant V36M; assay type: biochemical; settings: genotype 1b full-length mutant
T3 construct: wild-type HCV NS3 (HCV polyprotein residues 1027–1657); His-tag (N); made in house
Experimental: as §2
as §1, with “As a control, full-length NS3/4A (genotype 1b) was tested under the same conditions for direct comparison for each plate.” left out

[5] = biological target: T4, Trypsin (Homo sapiens, UniProt P07477); test: Inhibitor selectivity assay, trypsin (fluorometric); assay type: biochemical
T4 construct: purchased Sigma
Experimental: (§3) To test for selectivity, two human serine proteases, Trypsin and Chymotrypsin (Sigma), were tested with the top two hit compounds from HTS using a fluorometric assay. The fluorogenic substrates used in this study were N-benzoyl-L-Arg-7-amido-4-methylcoumarin (Sigma) and N-succinyl-Ala-Ala-Phe-7-amido-4- methylcoumarin (Sigma) for trypsin and chymotrypsin, respectively. All assays were performed in 384-well black plates (Corning) in a total volume of 24 µL of PBS (pH 7.4) buffer containing 0.01% Triton, 0.1 mg/mL BSA, and 2 mM GSH in triplicate. A series of compound concentrations (0 to 200 µM final concentration at 2-fold serial dilution) in 100% DMSO was prepared in a 384-well plate. 20 µL of trypsin (0.01 mg/mL) and chymotrypsin (0.0001 mg/mL) solutions were distributed into wells, and 0.5 µL of varying concentration of compounds were added and incubated for 10 minutes. The enzyme reaction was initiated by adding 5 µL of the substrate (50 µM final concentration), and fluorescence intensity was continuously monitored at excitation/emission wavelengths of 350 nm/460 nm for 10 minutes.

[6] = biological target: T5, Chymotrypsin (Homo sapiens, UniProt P17538); test: Inhibitor selectivity assay, chymotrypsin (fluorometric); assay type: biochemical
T5 construct: purchased Sigma
Experimental: as §3

[7] = Microsomal stability assay; assay type: in vitro ADME, mouse
Experimental: A typical incubation mixture (100 µL total volume) for the metabolic stability studies contained 1 µM (final concentration) test compounds, 0.5 mg/mL microsomal protein (pooled Balb/c mouse liver microsomes prepared as described previously), 100 mM Tris-HCl buffer (pH7.4), and NADPH-generating system (5 mM isocitric acid, 0.2 unit/mL isocitric acid dehydrogenase, 5 mM magnesium chloride, 1 mM NADP^+). After pre-incubation at 37°C for 5 minutes, the reactions were started by addition of NADP^+ and further incubated for another 0, 5, 10, and 20 minutes. For control experiments, NADPH and/or liver microsomes were omitted from these incubations. The reactions were terminated by adding 100 µL ice-cold acetonitrile containing phenytoin (1 µM) as an internal standard and kept on ice for 30 minutes, followed by centrifugation at 16,100 g for 15 minutes to obtain the supernatant. Aliquots (5 µL) were then analyzed for substrate disappearance using liquid chromatography-tandem mass spectrometry (Agilent 1200 HPLC interfaced with Applied Biosystems Qtrap 3200) equipped with an electrospray ion source. Chromatographic separation was carried out with a Waters XTerra MS C18 column (2.1×50 mm, 3.5 µm; Agilent Technologies, Santa Clara, CA). The mobile phases consisted of solvent A (0.1% (v/v) aqueous formic acid) and solvent B (acetonitrile). A 250 µL/min flow rate gradient was developed for each test compound over 10 minutes (Table S2 in File S1). Mass detection of test substrates and internal standard were followed in a positive ion mode by examining multiple reaction monitoring (MRM) pairs. The spraying needle voltage was set at 5000 V. Curtain gas was set at 20; gas 1 and gas 2 were set at 45 and 50, respectively; collision assisted dissociation gas was at medium; and the source heater probe temperature was at 500°C. The test compounds were quantified by comparing the ratio of ion currents obtained for the substrates and an internal standards calibration curve. Data acquisition and processing were accomplished using Analyst software (version 1.4.1; Applied Biosystems). Apparent half-lives (t1/2) for the disappearance of parent drugs were calculated from the pseudo-first-order rate constants (ke) obtained by linear regression of plots of log [drug remaining] versus time (GraphPad Prism 5 software, La Jolla, CA) using the equation: t1/2 = 0.693/ke.

T5 sequence (P17538 19-263): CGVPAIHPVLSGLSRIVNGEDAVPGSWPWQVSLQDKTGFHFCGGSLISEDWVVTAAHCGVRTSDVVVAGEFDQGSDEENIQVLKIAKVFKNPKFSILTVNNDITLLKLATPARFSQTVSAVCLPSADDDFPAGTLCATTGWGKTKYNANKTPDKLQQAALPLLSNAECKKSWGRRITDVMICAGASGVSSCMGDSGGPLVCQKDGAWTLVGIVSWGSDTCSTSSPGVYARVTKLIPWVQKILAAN

For `Cc1cc(NC(=O)Cc2csc(NS(=O)(=O)c3ccccc3)n2)ccc1Br` [Compound 12], the IC50 [1] was 9.3 ± 1.6 µM, the IC50 [2] was under 20 µM and the IC50 [3] was at most 20 µM. It also gave an IC50 [4] of at most 20 µM, an inhibition at 100 µM ([5]; 100 µM compound, read-out: Trypsin % Inh at 100 µM) of 28% and an IC50 ([5]; human trypsin) of over 100 µM. It also gave an inhibition at 100 µM ([6]; 100 µM compound, read-out: Chymotrypsin % Inh at 100 µM) of 19%, an IC50 ([6]; human chymotrypsin) of over 100 µM and a half-life at 1 µM ([7]; Balb/c, pH 7.4, mouse liver microsomes 0.5 mg/mL, 1 µM compound, NADPH-generating system, read-out: Microsomal stability t1/2) of 21.7 min. The microsomal stability ([7]; mouse liver microsomes, rounded values) was 22 min.
